Laboratory results from PMC10518257 (Nature Cancer, 2023).

Key:
[1] = biological target: T1, panel of 255 (vepafestinib) or 256 (all other inhibitors) recombinant kinases (Homo sapiens, UniProt Q9UF33); experiment: Kinase selectivity profiling at a single concentration (Carna Biosciences); format: biochemical; settings: 22 nM
T1 construct: purchased Carna Biosciences

[2] = biological target: T2, panel of 255 (vepafestinib) or 256 (all other inhibitors) recombinant kinases (Homo sapiens, UniProt P30530); experiment: as above; format: biochemical; settings: 22 nM
T2 construct: purchased Carna Biosciences

[3] = biological target: T3, panel of 255 (vepafestinib) or 256 (all other inhibitors) recombinant kinases (Homo sapiens, UniProt P17948); experiment: as above; format: biochemical; settings: 22 nM
T3 construct: purchased Carna Biosciences

[4] = biological target: T4, panel of 255 (vepafestinib) or 256 (all other inhibitors) recombinant kinases (Homo sapiens, UniProt P52333); experiment: as above; format: biochemical; settings: 17 nM
T4 construct: purchased Carna Biosciences

[5] = biological target: T5, panel of 255 (vepafestinib) or 256 (all other inhibitors) recombinant kinases (Homo sapiens, UniProt P08922); experiment: as above; format: biochemical; settings: 17 nM
T5 construct: purchased Carna Biosciences

[6] = biological target: T6, panel of 255 (vepafestinib) or 256 (all other inhibitors) recombinant kinases (Homo sapiens, UniProt P07947); experiment: as above; format: biochemical; settings: 17 nM
T6 construct: purchased Carna Biosciences

[7] = biological target: T7, panel of 255 (vepafestinib) or 256 (all other inhibitors) recombinant kinases (Homo sapiens, UniProt P23458); experiment: as above; format: biochemical; settings: 17 nM
T7 construct: purchased Carna Biosciences

[8] = biological target: T8, panel of 255 (vepafestinib) or 256 (all other inhibitors) recombinant kinases (Homo sapiens, UniProt O60674); experiment: as above; format: biochemical; settings: 17 nM
T8 construct: purchased Carna Biosciences

[9] = biological target: T9, panel of 255 (vepafestinib) or 256 (all other inhibitors) recombinant kinases (Homo sapiens, UniProt P04629); experiment: as above; format: biochemical; settings: 17 nM
T9 construct: purchased Carna Biosciences

[10] = biological target: T10, panel of 255 (vepafestinib) or 256 (all other inhibitors) recombinant kinases (Homo sapiens, UniProt Q16288); experiment: as above; format: biochemical; settings: 17 nM
T10 construct: purchased Carna Biosciences

LC-2/ad NSCLC xenograft = experiment: Subcutaneous xenograft efficacy study; format: in vivo, BALB/c nude mice
[11] = test system: RET phosphorylation at Y905 and Y1062 and downstream effectors; experiment: Western blotting of serum-starved LUAD-0002AS1, ECLC5B and TT cells, 2 h; format: cell-based, human; settings: 50 nM
Description: Serum-starved cells were treated with 5, 50 or 500 nM inhibitor for 2 h, and then protein phosphorylation levels were examined (Fig. 3a). […] We performed additional dose–response western blotting studies using lower inhibitor concentrations. Immunoblots were quantitated by densitometry, and the EC50 for phosphorylation inhibition was estimated (Extended Data Fig. 4). […] Quantitation of immunoblots is shown in Extended Data Fig. 4c,d.
Following treatment, whole-cell extracts were prepared and subjected to western blotting analysis. Representative immunoblots from two independent experiments are shown. GAPDH was used as a loading control. RSK, ribosomal protein S6 kinase; S6RP, S6 ribosomal protein. b,c, Cells were plated in 96-well plates and treated for 96 h with the inhibitors shown. The number of viable cells was assessed using alamarBlue. b, Viability curves for control HBEC cells (HBECp53-EV) and HBEC cells with the CCDC6-RET fusion (HBECp53-RET) are shown at the left. […] Data were analyzed by non-linear regression, and IC50 values were estimated by curve fitting. […]
See Supplementary Table 4 for a complete list of antibodies and dilutions used. […] The bands of the target proteins were detected with SuperSignal West Dura Extended Duration Substrate (Thermo Fisher Scientific) by the Amersham Imager 600 QC (Cytiva) or exposed to X-ray film and visualized using a Kodak X-ray developer.

[12] = biological target: T11, panel of 255 (vepafestinib) or 256 (all other inhibitors) recombinant kinases (Homo sapiens, UniProt Q13177); experiment: Kinase selectivity profiling at a single concentration (Carna Biosciences); format: biochemical; settings: 23 nM
T11 construct: purchased Carna Biosciences

[13] = biological target: T12, panel of 255 (vepafestinib) or 256 (all other inhibitors) recombinant kinases (Homo sapiens, UniProt P29376); experiment: as above; format: biochemical; settings: 23 nM
T12 construct: purchased Carna Biosciences

[14] = biological target: T13, panel of 255 (vepafestinib) or 256 (all other inhibitors) recombinant kinases (Homo sapiens, UniProt P07948); experiment: as above; format: biochemical; settings: 23 nM
T13 construct: purchased Carna Biosciences

[15] = biological target: T14, panel of 255 (vepafestinib) or 256 (all other inhibitors) recombinant kinases (Homo sapiens, UniProt Q9Y6E0); experiment: as above; format: biochemical; settings: 23 nM
T14 construct: purchased Carna Biosciences

[16] = biological target: T15, panel of 255 (vepafestinib) or 256 (all other inhibitors) recombinant kinases (Homo sapiens, UniProt Q7KZI7); experiment: as above; format: biochemical; settings: 23 nM
T15 construct: purchased Carna Biosciences

[17] = biological target: T16, panel of 255 (vepafestinib) or 256 (all other inhibitors) recombinant kinases (Homo sapiens, UniProt Q9P286); experiment: as above; format: biochemical; settings: 23 nM
T16 construct: purchased Carna Biosciences

[18] = biological target: T17, panel of 255 (vepafestinib) or 256 (all other inhibitors) recombinant kinases (Homo sapiens, UniProt Q15303); experiment: as above; format: biochemical; settings: 23 nM
T17 construct: purchased Carna Biosciences

[19] = biological target: T18, panel of 255 (vepafestinib) or 256 (all other inhibitors) recombinant kinases (Homo sapiens, UniProt P42684); experiment: as above; format: biochemical; settings: 23 nM
T18 construct: purchased Carna Biosciences

T10 sequence (Q16288 32-839): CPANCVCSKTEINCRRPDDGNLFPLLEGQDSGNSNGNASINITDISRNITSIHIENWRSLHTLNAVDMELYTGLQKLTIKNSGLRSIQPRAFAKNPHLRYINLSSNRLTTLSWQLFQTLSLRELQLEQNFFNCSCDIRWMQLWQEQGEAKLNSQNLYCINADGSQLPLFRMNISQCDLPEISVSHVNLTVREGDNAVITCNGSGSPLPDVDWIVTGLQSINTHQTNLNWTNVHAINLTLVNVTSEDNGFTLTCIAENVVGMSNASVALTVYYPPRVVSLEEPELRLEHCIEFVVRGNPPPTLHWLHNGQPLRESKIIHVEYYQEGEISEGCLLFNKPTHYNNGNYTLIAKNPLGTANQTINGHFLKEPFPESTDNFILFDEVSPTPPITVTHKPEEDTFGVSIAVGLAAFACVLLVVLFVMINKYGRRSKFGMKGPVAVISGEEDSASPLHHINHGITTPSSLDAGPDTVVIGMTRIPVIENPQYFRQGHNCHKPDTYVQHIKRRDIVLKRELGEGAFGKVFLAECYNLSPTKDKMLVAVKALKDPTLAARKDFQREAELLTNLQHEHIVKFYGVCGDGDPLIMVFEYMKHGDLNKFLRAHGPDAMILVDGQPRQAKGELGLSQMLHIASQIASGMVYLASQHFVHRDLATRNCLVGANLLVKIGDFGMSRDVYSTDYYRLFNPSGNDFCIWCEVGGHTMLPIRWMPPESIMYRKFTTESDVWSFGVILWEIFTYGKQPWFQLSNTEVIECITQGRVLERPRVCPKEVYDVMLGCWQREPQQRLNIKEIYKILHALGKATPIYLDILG
T4 sequence (P52333 whole entry): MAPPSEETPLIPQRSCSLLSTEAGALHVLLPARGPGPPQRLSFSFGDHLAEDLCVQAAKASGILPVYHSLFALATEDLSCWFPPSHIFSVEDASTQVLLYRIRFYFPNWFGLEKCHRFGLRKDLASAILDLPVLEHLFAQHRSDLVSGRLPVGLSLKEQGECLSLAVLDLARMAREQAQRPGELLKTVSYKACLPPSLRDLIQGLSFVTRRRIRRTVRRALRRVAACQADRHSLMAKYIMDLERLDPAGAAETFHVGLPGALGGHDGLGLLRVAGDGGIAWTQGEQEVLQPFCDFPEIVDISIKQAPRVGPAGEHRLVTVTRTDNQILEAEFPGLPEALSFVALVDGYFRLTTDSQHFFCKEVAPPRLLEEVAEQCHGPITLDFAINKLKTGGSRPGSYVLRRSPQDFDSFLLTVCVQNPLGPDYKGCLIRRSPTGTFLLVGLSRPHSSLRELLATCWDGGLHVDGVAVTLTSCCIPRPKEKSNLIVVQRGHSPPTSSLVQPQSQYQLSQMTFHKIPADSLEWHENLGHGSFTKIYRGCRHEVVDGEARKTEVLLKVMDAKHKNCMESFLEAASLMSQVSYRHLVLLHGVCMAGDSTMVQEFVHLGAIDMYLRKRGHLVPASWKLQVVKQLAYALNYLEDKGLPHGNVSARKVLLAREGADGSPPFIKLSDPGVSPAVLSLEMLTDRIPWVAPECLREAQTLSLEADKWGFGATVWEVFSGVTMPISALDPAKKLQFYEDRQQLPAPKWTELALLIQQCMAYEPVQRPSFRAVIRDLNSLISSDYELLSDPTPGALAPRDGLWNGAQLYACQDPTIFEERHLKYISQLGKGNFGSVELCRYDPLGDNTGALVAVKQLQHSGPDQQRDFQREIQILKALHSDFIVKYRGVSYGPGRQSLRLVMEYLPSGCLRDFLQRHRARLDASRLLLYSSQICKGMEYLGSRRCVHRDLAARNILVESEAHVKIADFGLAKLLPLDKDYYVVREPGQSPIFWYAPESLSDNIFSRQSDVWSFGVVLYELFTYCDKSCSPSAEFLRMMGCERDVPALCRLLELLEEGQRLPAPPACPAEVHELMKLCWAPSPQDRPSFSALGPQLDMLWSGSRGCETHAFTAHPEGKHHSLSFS
T2 sequence (P30530 26-894): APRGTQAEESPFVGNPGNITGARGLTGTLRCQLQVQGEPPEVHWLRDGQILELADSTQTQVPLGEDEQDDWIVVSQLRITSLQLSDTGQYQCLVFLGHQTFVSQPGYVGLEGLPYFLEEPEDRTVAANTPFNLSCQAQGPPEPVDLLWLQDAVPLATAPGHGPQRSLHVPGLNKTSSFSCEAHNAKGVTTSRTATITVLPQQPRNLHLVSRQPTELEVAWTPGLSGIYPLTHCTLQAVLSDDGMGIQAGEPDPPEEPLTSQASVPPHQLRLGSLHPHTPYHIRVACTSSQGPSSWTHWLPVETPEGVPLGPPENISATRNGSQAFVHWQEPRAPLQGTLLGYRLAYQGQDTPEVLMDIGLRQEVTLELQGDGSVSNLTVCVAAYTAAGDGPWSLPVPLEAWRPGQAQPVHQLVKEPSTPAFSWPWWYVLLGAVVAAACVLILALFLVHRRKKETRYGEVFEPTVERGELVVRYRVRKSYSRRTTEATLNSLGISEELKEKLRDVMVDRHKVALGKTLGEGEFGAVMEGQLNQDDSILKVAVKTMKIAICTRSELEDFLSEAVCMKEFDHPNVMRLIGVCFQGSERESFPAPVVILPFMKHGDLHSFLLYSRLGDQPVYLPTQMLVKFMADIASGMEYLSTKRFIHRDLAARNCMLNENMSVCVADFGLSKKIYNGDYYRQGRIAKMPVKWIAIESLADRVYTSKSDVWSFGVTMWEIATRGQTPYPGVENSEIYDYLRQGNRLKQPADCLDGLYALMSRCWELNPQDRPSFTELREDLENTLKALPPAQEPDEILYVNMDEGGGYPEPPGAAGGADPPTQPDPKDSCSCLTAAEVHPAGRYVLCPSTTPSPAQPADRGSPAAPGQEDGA
T12 sequence (P29376 17-864): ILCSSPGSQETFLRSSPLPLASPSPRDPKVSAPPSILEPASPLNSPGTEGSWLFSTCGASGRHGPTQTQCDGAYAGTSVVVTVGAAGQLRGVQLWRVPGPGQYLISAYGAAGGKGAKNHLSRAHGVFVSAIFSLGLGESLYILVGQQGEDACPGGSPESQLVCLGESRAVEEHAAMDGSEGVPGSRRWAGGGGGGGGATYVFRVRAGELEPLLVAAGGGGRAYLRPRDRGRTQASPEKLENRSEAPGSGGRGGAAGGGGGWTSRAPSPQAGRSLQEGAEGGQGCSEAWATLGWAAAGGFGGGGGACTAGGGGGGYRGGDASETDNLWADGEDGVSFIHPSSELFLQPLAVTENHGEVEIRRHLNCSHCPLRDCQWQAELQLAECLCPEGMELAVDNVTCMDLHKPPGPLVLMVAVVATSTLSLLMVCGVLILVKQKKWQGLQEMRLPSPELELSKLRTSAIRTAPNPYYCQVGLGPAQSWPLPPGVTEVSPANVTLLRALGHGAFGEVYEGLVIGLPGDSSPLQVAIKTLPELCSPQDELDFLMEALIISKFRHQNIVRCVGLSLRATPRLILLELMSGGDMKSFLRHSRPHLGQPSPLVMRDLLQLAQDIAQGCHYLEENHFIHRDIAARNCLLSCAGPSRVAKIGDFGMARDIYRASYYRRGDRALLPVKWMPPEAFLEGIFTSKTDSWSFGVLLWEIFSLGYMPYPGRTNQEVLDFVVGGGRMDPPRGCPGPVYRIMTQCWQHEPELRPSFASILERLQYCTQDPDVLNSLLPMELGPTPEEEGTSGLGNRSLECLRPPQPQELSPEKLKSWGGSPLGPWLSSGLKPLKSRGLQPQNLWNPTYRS
T8 sequence (O60674 whole entry): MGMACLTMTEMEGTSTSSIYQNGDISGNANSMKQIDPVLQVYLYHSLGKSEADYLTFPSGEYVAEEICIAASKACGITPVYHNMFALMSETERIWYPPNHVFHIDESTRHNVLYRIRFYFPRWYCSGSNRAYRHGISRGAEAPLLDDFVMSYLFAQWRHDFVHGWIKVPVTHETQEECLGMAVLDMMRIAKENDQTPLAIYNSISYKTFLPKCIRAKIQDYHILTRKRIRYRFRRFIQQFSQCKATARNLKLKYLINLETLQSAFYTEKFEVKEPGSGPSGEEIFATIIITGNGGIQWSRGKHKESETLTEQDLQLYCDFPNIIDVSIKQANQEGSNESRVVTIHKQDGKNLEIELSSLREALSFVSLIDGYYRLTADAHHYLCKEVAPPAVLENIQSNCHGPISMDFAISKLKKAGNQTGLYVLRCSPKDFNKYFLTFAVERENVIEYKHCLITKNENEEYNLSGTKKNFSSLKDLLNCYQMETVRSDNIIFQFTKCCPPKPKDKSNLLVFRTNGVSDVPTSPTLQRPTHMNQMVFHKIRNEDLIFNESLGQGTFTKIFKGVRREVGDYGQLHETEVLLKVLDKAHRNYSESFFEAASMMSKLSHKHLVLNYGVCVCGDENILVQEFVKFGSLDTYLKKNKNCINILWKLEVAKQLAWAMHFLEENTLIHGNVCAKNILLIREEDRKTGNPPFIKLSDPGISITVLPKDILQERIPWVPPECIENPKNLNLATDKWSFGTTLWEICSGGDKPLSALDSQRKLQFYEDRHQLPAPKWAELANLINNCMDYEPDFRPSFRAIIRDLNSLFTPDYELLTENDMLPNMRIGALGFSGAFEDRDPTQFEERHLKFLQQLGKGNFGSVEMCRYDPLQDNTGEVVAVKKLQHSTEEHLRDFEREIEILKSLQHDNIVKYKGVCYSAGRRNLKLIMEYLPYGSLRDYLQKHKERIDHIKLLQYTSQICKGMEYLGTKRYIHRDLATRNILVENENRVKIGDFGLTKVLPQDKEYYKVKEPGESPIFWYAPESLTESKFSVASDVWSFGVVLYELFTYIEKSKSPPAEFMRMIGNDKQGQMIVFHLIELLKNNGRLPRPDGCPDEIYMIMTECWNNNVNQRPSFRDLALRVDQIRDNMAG

SMILES: COc1ccc(CN2C3CC2CN(c2ccc(-c4cc(OCC(C)(C)O)cn5ncc(C#N)c45)cn2)C3)cn1 [Selpercatinib]
- % Inhibiton EPHA6 [1]: 17.3%
- % Inhibiton AXL [2]: 18.1%
- % Inhibiton FLT1 [3]: 45.4%

SMILES: CO[C@]1(C(=O)N[C@@H](C)c2ccc(-n3cc(F)cn3)nc2)CC[C@H](c2nc(C)cc(Nc3cc(C)[nH]n3)n2)CC1 [Pralsetinib]
- % Inhibiton JAK3 [4]: 72.3%
- % Inhibiton ROS [5]: 40%
- % Inhibiton YES [6]: 37.6%
- % Inhibiton JAK1 [7]: 89.1%
- % Inhibiton JAK2 [8]: 101.5%
- % Inhibiton TRKA [9]: 40.8%
- % Inhibiton TRKC [10]: 57.7%

SMILES: COCc1ccc(NC(=O)c2c(C#CCN3CCOCC3)n(C3(C)CC3)c3ncnc(N)c23)cc1 [Vepafestinib, 4-amino-N-[4-(methoxymethyl)phenyl]-7-(1-methylcyclopropyl)-6-[3-(morpholin-4-yl)prop-1-yn-1-yl]-7H-pyrrolo[2,3-d]pyrimidine-5-carboxamide]
- Tumor Volume (mm3) Mean (LC-2/ad NSCLC xenograft; 25 mg/kg BID, day 0): 143.372 mm3
- Tumor Volume (mm3) Mean (LC-2/ad NSCLC xenograft; 25 mg/kg BID, day 4): 128.076 mm3
- Tumor Volume (mm3) Mean (LC-2/ad NSCLC xenograft; 25 mg/kg BID, day 8): 127.413 mm3
- Tumor Volume (mm3) Mean (LC-2/ad NSCLC xenograft; 25 mg/kg BID, day 11): 123.160 mm3
- Tumor Volume (mm3) Mean (LC-2/ad NSCLC xenograft; 25 mg/kg BID, day 15): 151.811 mm3
- Tumor Volume (mm3) Mean (LC-2/ad NSCLC xenograft; 50 mg/kg BID, day 0): 140.580 mm3
- Tumor Volume (mm3) Mean (LC-2/ad NSCLC xenograft; 50 mg/kg BID, day 4): 117.460 mm3
- Tumor Volume (mm3) Mean (LC-2/ad NSCLC xenograft; 50 mg/kg BID, day 8): 119.902 mm3
- Tumor Volume (mm3) Mean (LC-2/ad NSCLC xenograft; 50 mg/kg BID, day 11): 105.200 mm3
- Tumor Volume (mm3) Mean (LC-2/ad NSCLC xenograft; 50 mg/kg BID, day 15): 98.169 mm3
- Tumor Volume (mm3) Mean (LC-2/ad NSCLC xenograft; 50 mg/kg QD, day 0): 140.683 mm3
- Tumor Volume (mm3) Mean (LC-2/ad NSCLC xenograft; 50 mg/kg QD, day 4): 139.893 mm3
- Tumor Volume (mm3) Mean (LC-2/ad NSCLC xenograft; 50 mg/kg QD, day 8): 112.730 mm3
- Tumor Volume (mm3) Mean (LC-2/ad NSCLC xenograft; 50 mg/kg QD, day 11): 118.521 mm3
- Tumor Volume (mm3) Mean (LC-2/ad NSCLC xenograft; 50 mg/kg QD, day 15): 131.887 mm3
- inhibition of phosphorylation of RET and downstream effectors [11]: Near-complete inhibition
- % Inhibiton PAK2 [12]: 19%
- % Inhibiton LTK [13]: 11.3%
- % Inhibiton LYNa [14]: 6.7%
- % Inhibiton MST3 [15]: 13.4%
- % Inhibiton MARK2 [16]: 14.1%
- % Inhibiton PAK5 [17]: 10.8%
- % Inhibiton HER4 [18]: 9.5%
- % Inhibiton ARG [19]: 7.3%
